Columns and labels:
GNB2L1 C182 (P63244) = GNB2L1 C182 (P63244) (Homo sapiens, UniProt P63244); experiment: Competitive isoTOP-ABPP, cell lysates; assay type: binding; conditions: 500 μm, in-vitro_ramos_231;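 note: Heavy/light ratio DMSO over fragment-treated so higher means more cysteine engagement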
Procedure: (§1) TEV digests were pressure loaded onto a 250 μm (inner diameter) fused silica capillary column packed with C18 resin (Aqua 5 μm, Phenomenex). The samples were analyzed by multidimensional liquid chromatography tandem mass spectrometry (MudPIT), using an LTQ-Velos Orbitrap mass spectrometer (Thermo Scientific) coupled to an Agilent 1200-series quaternary pump. The peptides were eluted onto a biphasic column with a 5 μm tip (100 μm fused silica, packed with C18 (10 cm) and bulk strong cation exchange resin (3 cm, SCX, Phenomenex,)) in a 5-step MudPIT experiment, using 0%, 30%, 60%, 90%, and 100% salt bumps of 500 mM aqueous ammonium acetate and using a gradient of 5-100% buffer B in buffer A (buffer A: 95% water, 5% acetonitrile, 0.1% formic acid; buffer B: 5% water, 95% acetonitrile, 0.1% formic acid) as has been described in Weerapana et al. Nat Protoc 2:1414-1425 (2007). Data was collected in data-dependent acquisition mode with dynamic exclusion enabled (20 s, repeat of 2). One full MS (MS1) scan (400-1800 m/z) was followed by 30 MS2 scans (ITMS) of the nth most abundant ions.
(§2) The ratios of heavy/light for each unique peptide (DMSO/compound treated; isoTOP-ABPP ratios, R values) were quantified with in-house CIMAGE software, using default parameters (3 ms s per peak and signal to noise threshold 2.5). Site-specific engagement of electrophilic fragments was assessed by blockade of IA-alkyne probe labeling. […] Ratios for unique peptide entries were calculated for each experiment; overlapping peptides with the same modified cysteine (e.g. different charge states, MudPIT chromatographic steps or tryptic termini) were grouped together and the median ratio was reported as the final ratio (R). The peptide ratios reported by CIMAGE were further filtered to ensure the removal or correction of low quality ratios in each individual dataset. The quality filters applied were the following: removal of half tryptic peptides; for ratios with high standard deviations from the median (90% of the median or above) the lowest ratio was taken instead of the median; removal of peptides with R=20 and only a single ms2 event triggered during the elution of the parent ion; manual annotation of all the peptides with ratios of 20, removing any peptides with low-quality elution profiles that remained after the previous curation steps. Proteome reactivity values for individual fragments were computed as the percentage of the total quantified cysteine-containing peptides with R values≥4 (defined as liganded cysteines) for each replicate experiment and the final proteome reactivity value was calculated as the mean for all replicate experiments for each fragment from both MDA-MB-231 and Ramos cellular proteomes.
(§3) Biological replicates of the same compound and cell-line were averaged if the standard deviation was below 60% of the mean; otherwise the lowest value of the ratio set was taken.

GSTP1 C48 (P09211) = GSTP1 C48 (P09211) (Homo sapiens, UniProt P09211); experiment: Competitive isoTOP-ABPP, cell lysates; assay type: binding; conditions: 500 μm, in-vitro_ramos_231;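 note: Heavy/light ratio DMSO over fragment-treated so higher means more cysteine engagement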
Procedure: as §1, §2, §3

MLTK C22 (Q9NYL2) = MLTK C22 (Q9NYL2) (Homo sapiens, UniProt Q9NYL2); experiment: Competitive isoTOP-ABPP, cell lysates; assay type: binding; conditions: 500 μm, in-vitro_ramos_231
Procedure: as §1, §2, §3

PDIA6 C55 (Q15084) = target: T1, PDIA6 C55 (Q15084) (Homo sapiens, UniProt Q15084); experiment: Competitive isoTOP-ABPP, cell lysates; assay type: binding; conditions: 500 μm, in-vitro_ramos_231
T1 sequence (Q15084 20-440): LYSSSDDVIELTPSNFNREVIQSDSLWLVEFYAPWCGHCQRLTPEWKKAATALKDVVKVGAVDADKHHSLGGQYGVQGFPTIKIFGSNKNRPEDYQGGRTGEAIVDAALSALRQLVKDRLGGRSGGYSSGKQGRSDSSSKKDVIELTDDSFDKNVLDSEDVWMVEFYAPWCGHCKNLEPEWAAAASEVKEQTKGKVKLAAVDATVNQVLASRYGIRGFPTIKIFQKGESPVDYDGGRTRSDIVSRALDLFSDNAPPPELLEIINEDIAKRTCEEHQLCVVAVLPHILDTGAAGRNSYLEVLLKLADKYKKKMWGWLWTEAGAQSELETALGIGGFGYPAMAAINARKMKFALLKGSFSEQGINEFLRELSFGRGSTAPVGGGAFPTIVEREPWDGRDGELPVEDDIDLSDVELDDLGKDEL
Procedure: as §1, §2, §3

PRMT1 C109 (Q99873) = PRMT1 C109 (Q99873) (Homo sapiens, UniProt Q99873); experiment: Competitive isoTOP-ABPP, cell lysates; assay type: binding; conditions: 500 μm, in-vitro_ramos_231;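 note: Heavy/light ratio DMSO over fragment-treated so higher means more cysteine engagement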
Procedure: as §1, §2, §3

UBE2L3 C86 (P68036) = UBE2L3 C86 (P68036) (Homo sapiens, UniProt P68036); experiment: Competitive isoTOP-ABPP, cell lysates; assay type: binding; conditions: 500 μm, in-vitro_ramos_231;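 note: Heavy/light ratio DMSO over fragment-treated so higher means more cysteine engagement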
Procedure: as §1, §2, §3

XPO1 C34 (O14980) = XPO1 C34 (O14980) (Homo sapiens, UniProt O14980); experiment: Competitive isoTOP-ABPP, cell lysates; assay type: binding; conditions: 500 μm, in-vitro_ramos_231
Procedure: as §1, §2, §3

ACAT1 C119 (P24752) = target: T2, ACAT1 C119 (P24752) (Homo sapiens, UniProt P24752); experiment: Competitive isoTOP-ABPP, cell lysates; assay type: binding; conditions: 500 μm, in-vitro_ramos_231
T2 sequence (P24752 34-427): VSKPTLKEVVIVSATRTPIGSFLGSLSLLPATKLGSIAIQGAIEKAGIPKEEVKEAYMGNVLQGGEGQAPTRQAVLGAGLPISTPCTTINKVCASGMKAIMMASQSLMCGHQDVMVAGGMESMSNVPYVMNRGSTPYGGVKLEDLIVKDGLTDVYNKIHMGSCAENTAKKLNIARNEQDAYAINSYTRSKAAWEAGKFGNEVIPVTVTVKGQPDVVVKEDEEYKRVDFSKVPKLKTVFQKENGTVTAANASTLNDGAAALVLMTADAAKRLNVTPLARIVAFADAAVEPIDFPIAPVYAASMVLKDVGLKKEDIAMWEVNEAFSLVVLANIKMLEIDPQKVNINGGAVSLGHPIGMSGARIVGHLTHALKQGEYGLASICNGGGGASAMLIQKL

ACAT1 C196 (P24752) = target: T3, ACAT1 C196 (P24752) (Homo sapiens, UniProt P24752); experiment: Competitive isoTOP-ABPP, cell lysates; assay type: binding; conditions: 500 μm, in-vitro_ramos_231
T3 sequence (P24752 34-427): T2 sequence (P24752 34-427)

ACAT1 C413 (P24752) = target: T4, ACAT1 C413 (P24752) (Homo sapiens, UniProt P24752); experiment: Competitive isoTOP-ABPP, cell lysates; assay type: binding; conditions: 500 μm, in-vitro_ramos_231
T4 sequence (P24752 34-427): T2 sequence (P24752 34-427)

ACAT1 C126 (P24752) = target: T5, ACAT1 C126 (P24752) (Homo sapiens, UniProt P24752); experiment: Competitive isoTOP-ABPP, cell lysates; assay type: binding; conditions: 500 μm, in-vitro_ramos_231
T5 sequence (P24752 34-427): T2 sequence (P24752 34-427)

O00541_C272 = O00541_C272 (Homo sapiens, UniProt O00541); experiment: Competitive isoTOP-ABPP, cell lysates; assay type: binding; conditions: 500 μm, in-vitro_ramos_231
primary human T cells = experiment: T cell activation markers CD25 and CD69 (flow cytometry); assay type: cell-based; conditions: 2.5 mM, 8 h
Procedure: 96-well plates were coated with anti-CD3 (1:200; BioXcell) and anti-CD28 (1:500; 302933; BioLegend) in PBS (100 μL/well) overnight at 4° C. The plates were then washed twice with PBS and to each well was added 500,000 primary T cells in 100 μL of RPMI supplemented with 10% FBS, glutamine, and Pen-Strep. Cells were then treated with 100 μL of media containing compound at the indicated concentrations (final well volume of 200 μL). Cells were left at 37° C. in a 5% CO2 incubator for the indicated periods of time and harvested by centrifugation (500 g, 8 min, 4° C.), followed by washing with PBS.
Flow cytometry analysis of cell surface antigens was performed with the following antibodies: Pacific Blue-conjugated anti-CD8 (1:25 dilution; clone RPA-T8; BD Biosciences), APC-conjugated anti-CD4 (1:25 dilution; clone RPA-T4; eBioscience), phycoerythrin-conjugated anti-CD25 (1:25 dilution; clone BC96; eBioscience or PC61; BioLegend (PKCθ studies)), FITC-conjugated anti-CD69 (1:25 dilution; clone FN50; eBioscience). All antibodies were diluted in 1% FBS in PBS, and 50 μL of the stain solution was added to each well. […] Flow cytometry acquisition was performed with BD FACSDivam-driven BD™ LSR II flow cytometer (Becton, Dickinson and Company). Data was then analyzed with FlowJo software (Treestar Inc.). Data represent mean±SE for four-five experiments per group.

[1] = tested on: intracellular GSH in primary human T cells; experiment: Quantification of cellular glutathione (GSH) levels; assay type: cell-based; conditions: DMF 50 μM 2 h; BSO 2.5 mM 4 h
Procedure: Primary human T cells (2.5 million cells/mL, 20 mL per condition) were treated as indicated, harvested by centrifugation (500 g, 8 min, 4° C.), and washed twice with PBS. To the cell pellet was added 75 μL of lysis buffer. […] Protein concentrations were adjusted to at least 5 mg/mL and the assay performed according to manufacturer's instructions (Sigma-Aldrich, CS 1020). Data represent mean±SE for two biological replicates.

[2] = tested on: Cys residues in primary human T cells; experiment: isoTOP-ABPP of compound-treated primary human T cells; assay type: cell-based; conditions: MMF 50 μM 4 h; BSO 2.5 mM 4 h

Structure (SMILES)	isoTOP-ABPP reactivity profile ratio, P63244_C182 (GNB2L1 C182 (P63244))	isoTOP-ABPP reactivity profile ratio, P09211_C48 (GSTP1 C48 (P09211))	isoTOP-ABPP reactivity profile ratio, Q9NYL2_C22 (MLTK C22 (Q9NYL2))	isoTOP-ABPP reactivity profile ratio, Q15084_C55 (PDIA6 C55 (Q15084))	isoTOP-ABPP reactivity profile ratio, Q99873_C109 (PRMT1 C109 (Q99873))	isoTOP-ABPP reactivity profile ratio, P68036_C86 (UBE2L3 C86 (P68036))	isoTOP-ABPP reactivity profile ratio, O14980_C34 (XPO1 C34 (O14980))	isoTOP-ABPP reactivity profile ratio, P24752_C119 (ACAT1 C119 (P24752))	isoTOP-ABPP reactivity profile ratio, P24752_C196 (ACAT1 C196 (P24752))	isoTOP-ABPP reactivity profile ratio, P24752_C413 (ACAT1 C413 (P24752))	isoTOP-ABPP reactivity profile ratio, P24752_C126 (ACAT1 C126 (P24752))	isoTOP-ABPP reactivity profile ratio, O00541_C272 (O00541_C272)	T cell activation (CD25) (primary human T cells)	cellular GSH content [1]	alteration of the ~40 DMF-sensitive Cys residues [2]
CCCN(C(=O)CCl)c1c(N)n(CCC)c(=O)[nH]c1=O [compound 55]	1.0	1.4	1.2	0.9	1.0	1.0	0.9	0.9	1.0	1.0	0.9	1.0			
CCCCS(=N)(=O)CCC(N)C(=O)O (stereo not drawn) [BSO, buthionine sulfoximine]													no effect	Significant reductions	none

Source: patent US10670605B2, “Cysteine reactive probes and uses thereof” (The Scripps Research Institute, priority 2015, dated 2020)
